Source: article PMC13050340 (Journal of Computer-Aided Molecular Design, 2026)

Biological target: T1, 3-mercaptopyruvate sulfurtransferase (3-MST) (Homo sapiens, UniProt P25325)
T1 sequence (P25325 2-297): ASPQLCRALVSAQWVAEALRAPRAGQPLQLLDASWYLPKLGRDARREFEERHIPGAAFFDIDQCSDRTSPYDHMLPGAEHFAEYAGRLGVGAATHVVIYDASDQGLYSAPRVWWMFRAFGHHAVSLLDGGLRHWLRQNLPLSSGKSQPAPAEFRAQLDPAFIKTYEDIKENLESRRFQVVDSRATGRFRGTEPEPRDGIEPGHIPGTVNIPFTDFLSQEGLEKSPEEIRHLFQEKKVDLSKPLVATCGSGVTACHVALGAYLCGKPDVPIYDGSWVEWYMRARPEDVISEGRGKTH
Experiment: biochemical 3-MST inhibition assay, concentration-response

IC50: 9.59 ± 1.22 µM
SMILES: COc1cc2cc(Oc3ccc4ccc(=O)oc4c3)c(=O)oc2cc1O [compound 5, Daphnoretin]
